{"source": "ChEMBL document CHEMBL5241088", "about": "“Selective SIRT2 inhibitors as promising anticancer therapeutics: An update from 2016 to 2020” (Eur J Med Chem, 2021)", "key": {"[1]": {"molecular_target": "T1, NAD-dependent protein deacetylase sirtuin-2 (Homo sapiens, UniProt Q8IXJ6)", "T1 sequence (Q8IXJ6 whole entry)": "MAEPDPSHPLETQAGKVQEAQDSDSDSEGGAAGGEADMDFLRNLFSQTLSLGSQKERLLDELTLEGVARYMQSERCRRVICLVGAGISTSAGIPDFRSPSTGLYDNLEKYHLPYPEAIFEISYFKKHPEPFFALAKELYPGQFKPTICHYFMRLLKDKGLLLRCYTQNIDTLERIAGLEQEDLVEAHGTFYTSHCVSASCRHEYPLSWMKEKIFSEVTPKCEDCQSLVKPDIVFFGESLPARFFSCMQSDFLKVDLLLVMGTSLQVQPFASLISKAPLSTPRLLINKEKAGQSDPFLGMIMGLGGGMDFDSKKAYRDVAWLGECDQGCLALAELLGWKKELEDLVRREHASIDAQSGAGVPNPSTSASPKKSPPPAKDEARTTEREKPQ", "assay": "Inhibition of human SIRT2 expressed in Escherichia coli BL21(DE3) using Ac-Arg-His-Lys-[Lys-(Ac)]-AMC substrate"}, "MDA-MB-231 [2]": {"tested_on": "MDA-MB-231", "assay": "Cytotoxicity against human MDA-MB-231 cells assessed as cell viability measured after 3 days by Cell Titer Blue assay", "type": "functional, cell-based", "details": "MDA-MB-231, 72 h"}, "MCF7 [3]": {"tested_on": "MCF7", "assay": "Cytotoxicity against human MCF7 cells assessed as cell viability measured after 3 days by Cell Titer Blue assay", "type": "functional, cell-based", "details": "MCF7, 72 h"}, "MDA-MB-468": {"tested_on": "MDA-MB-468", "assay": "Cytotoxicity against human MDA-MB-468 cells assessed as cell viability measured after 3 days by Cell Titer Blue assay", "type": "functional, cell-based", "details": "MDA-MB-468, 72 h"}, "MDA-MB-231 [4]": {"tested_on": "MDA-MB-231", "assay": "Antiproliferative activity against human MDA-MB-231 cells incubated for 72 hrs by MTT assay", "type": "functional"}, "MCF7 [5]": {"tested_on": "MCF7", "assay": "Antiproliferative activity against human MCF7 cells incubated for 72 hrs by MTT assay", "type": "functional"}, "[6]": {"molecular_target": "T1, NAD-dependent protein deacetylase sirtuin-2", "assay": "Inhibition of SIRT2 (unknown origin)"}, "[7]": {"molecular_target": "T1, NAD-dependent protein deacetylase sirtuin-2", "assay": "Inhibition of recombinant SIRT2 (unknown origin) using (FAM)-labeled fluorescent peptide-RHKK(Ac)LM by electrophoretic mobility shift assay"}, "[8]": {"molecular_target": "T2, NAD-dependent protein deacetylase sirtuin-2 (Homo sapiens) (UniProt Q8IXJ6)", "T2 sequence (whole entry)": "T1 sequence (Q8IXJ6 whole entry)", "assay": "Inhibition of human SIRT2 (34 to 356 amino acids) by surface plasmon resonance assay relative to control", "details": "concentration not given here"}, "Raji": {"tested_on": "Raji", "assay": "Cytotoxicity against human Raji cells assessed as cell viability after 72 hrs by CellTiter-Glo assay", "type": "functional, cell-based"}, "[9]": {"assay": "Cytotoxicity against human DLBCL cells assessed as cell viability after 72 hrs by CellTiter-Glo assay", "type": "functional, cell-based"}, "[10]": {"molecular_target": "T1, NAD-dependent protein deacetylase sirtuin-2", "assay": "Inhibition of human SIRT2 using Ac-peptide as substrate assessed as fluorescence intensity by microplate reader"}, "[11]": {"molecular_target": "T1, NAD-dependent protein deacetylase sirtuin-2", "assay": "Inhibition of human SIRT2 using sirtuin substrate incubated for 30 mins by enzymatic fluorescence assay"}, "HEK-293T": {"tested_on": "HEK-293T", "assay": "Antiproliferative activity against human HEK293T cells", "type": "functional, cell-based"}, "[12]": {"molecular_target": "T1, NAD-dependent protein deacetylase sirtuin-2", "assay": "Inhibition of human SIRT2 demyristoylation activity using ETDKac as substrate"}, "MCF7 [13]": {"tested_on": "MCF7", "assay": "Antiproliferative activity against human MCF7 cells", "type": "functional, cell-based"}, "[14]": {"molecular_target": "T1, NAD-dependent protein deacetylase sirtuin-2", "assay": "Inhibition of human SIRT2 deacetylase activity using QPKKac as substrate"}, "[15]": {"molecular_target": "T1, NAD-dependent protein deacetylase sirtuin-2", "assay": "Inhibition of human GST-fused SIRT2 expressed in Escherichia coli BL21(DE3)"}}, "note": "pIC50: −log10 of the molar value."}
{"compound": "COc1ccc2cc(S(=O)(=O)Cc3ccc(OC(C)=O)cc3)oc2c1", "values": [{"measurement": "pIC50", "setting": "[1]", "result": 5.42}]}
{"compound": "CCCCCCCCCCCCCC(=S)NCCCCC(NC(=O)OCc1ccccc1)C(=O)Nc1ccccc1", "note": "(stereo not drawn)", "values": [{"measurement": "pIC50", "setting": "MDA-MB-231 [2]", "result": 4.47}, {"measurement": "pIC50", "setting": "MCF7 [3]", "result": 5.08}, {"measurement": "pIC50", "setting": "MDA-MB-468", "result": 5.07}]}
{"compound": "C[C@H](NC(=O)[C@H](CCCCNC(=S)CNC(=O)c1ccccc1Nc1cccc(OCCc2ccccc2)c1)NC(=O)OCc1ccccc1)C(N)=O", "values": [{"measurement": "GI50", "setting": "MDA-MB-231 [4]", "result": 8.3, "unit": "µM"}, {"measurement": "GI50", "setting": "MCF7 [5]", "result": 8.3, "unit": "µM"}, {"measurement": "pIC50", "setting": "[6]", "result": 5.81}]}
{"compound": "C=CCNC(=S)N/N=C/c1ccc(OC)c(Cn2cc([N+](=O)[O-])cn2)c1", "values": [{"measurement": "pIC50", "setting": "[7]", "result": 6.74}]}
{"compound": "CCOC(=O)c1c(/C=N/OCc2cn(CC(=O)c3ccc(OC)cc3)nn2)c2ccccc2n1C", "values": [{"measurement": "inhibition", "setting": "[8]", "result": 73.1, "unit": "%"}]}
{"compound": "CNC(=O)C(Cc1c(O)ccc2cc(Br)ccc12)C(=O)c1ccc(Br)cc1", "note": "(stereo not drawn)", "values": [{"measurement": "pIC50", "setting": "Raji", "result": 5.04}, {"measurement": "pIC50", "setting": "[9]", "result": 5.24}]}
{"compound": "O=C(CSc1nnc2c3ccccc3n(Cc3ccccc3)c2n1)Nc1cccc2ccccc12", "values": [{"measurement": "pIC50", "setting": "[10]", "result": 5.89}]}
{"compound": "COc1cc2oc3cc(O)c(OC)c(CC=C(C)C)c3c(=O)c2c(O)c1CC=C(C)C", "values": [{"measurement": "pIC50", "setting": "[11]", "result": 4.72}]}
{"compound": "CCCCCCCCCCCCCC(=S)NCCCC[C@H](NS(C)(=O)=O)C(=O)N[C@@H](C)C(=O)N[C@@H](CCCNC(=N)N)C(N)=O", "values": [{"measurement": "pIC50", "setting": "HEK-293T", "result": 8.00}, {"measurement": "pIC50", "setting": "[12]", "result": 7.05}, {"measurement": "pIC50", "setting": "MCF7 [13]", "result": 7.30}]}
{"compound": "Cc1[nH]c2c(c1C(=O)N(C)Cc1cccc(-c3ccc(C(F)(F)F)cc3)c1)C(=O)CC(C)(C)C2", "values": [{"measurement": "pIC50", "setting": "[6]", "result": 6.01}]}
{"compound": "CC(C)=CCc1c(O)cc2oc3cc(O)c(O)c(CC=C(C)C)c3c(=O)c2c1O", "values": [{"measurement": "pIC50", "setting": "[11]", "result": 5.42}]}
{"compound": "CCCCCCCCCCCCCC(=S)NCCCC[C@H](NS(C)(=O)=O)C(=O)N[C@H](C)C(=O)N[C@@H](CCCNC(=N)N)C(N)=O", "values": [{"measurement": "pIC50", "setting": "HEK-293T", "result": 7.00}, {"measurement": "pIC50", "setting": "MCF7 [13]", "result": 6.30}, {"measurement": "pIC50", "setting": "[14]", "result": 7.15}]}
{"compound": "CCC(C)(C)c1ccc(OCC(O)CN2C[C@@H]3C[C@H](C2)c2cccc(=O)n2C3)c(C(C)(C)CC)c1", "note": "(stereo partly drawn)", "values": [{"measurement": "pIC50", "setting": "[15]", "result": 6.34}]}
{"compound": "COc1c(O)cc2oc3cc(O)c(CC=C(C)C)c(O)c3c(=O)c2c1CC=C(C)C", "note": "[MANGOSTIN]", "values": [{"measurement": "pIC50", "setting": "[11]", "result": 5.04}]}
